Results taken from PubChem BioAssay (NCI).
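Five compound concentrations were applied to cells in 96-well plates for 48 hours; endpoints were derived by simple linear interpolation of the resulting dose-response curve. At the TGI there is no net growth.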

Experiments:
Assay in all cases: NCI-60 cell line screen, 48 h
786-0 renal = system: 786-0 renal
A498 renal = system: A498 renal
A549 NSCLC = system: A549 NSCLC
ACHN renal = system: ACHN renal
CCRF-CEM leukemia = system: CCRF-CEM leukemia
COLO 205 colon = system: COLO 205 colon
DLD-1 colon = system: DLD-1 colon
DMS 114 small cell lung = system: DMS 114 small cell lung
DMS 273 small cell lung = system: DMS 273 small cell lung
EKVX NSCLC = system: EKVX NSCLC
HCC-2998 colon = system: HCC-2998 colon
HCT-116 colon = system: HCT-116 colon
HL-60(TB) leukemia = system: HL-60(TB) leukemia
HOP-18 NSCLC = system: HOP-18 NSCLC
HOP-62 NSCLC = system: HOP-62 NSCLC
HOP-92 NSCLC = system: HOP-92 NSCLC
HT29 colon = system: HT29 colon
IGROV1 ovarian = system: IGROV1 ovarian
K-562 leukemia = system: K-562 leukemia
KM12 colon = system: KM12 colon
KM20L2 colon = system: KM20L2 colon
LOX IMVI melanoma = system: LOX IMVI melanoma
LXFL 529 NSCLC = system: LXFL 529 NSCLC
M14 melanoma = system: M14 melanoma
M19-MEL melanoma = system: M19-MEL melanoma
MALME-3M melanoma = system: MALME-3M melanoma
MOLT-4 leukemia = system: MOLT-4 leukemia
NCI-H226 lung = system: NCI-H226 lung
NCI-H23 lung = system: NCI-H23 lung
NCI-H460 lung = system: NCI-H460 lung
OVCAR-3 ovarian = system: OVCAR-3 ovarian
OVCAR-4 ovarian = system: OVCAR-4 ovarian
OVCAR-8 ovarian = system: OVCAR-8 ovarian
RPMI-8226 leukemia = system: RPMI-8226 leukemia
RXF 393 renal = system: RXF 393 renal
SF-295 CNS = system: SF-295 CNS
SF-539 CNS = system: SF-539 CNS
SK-MEL-2 melanoma = system: SK-MEL-2 melanoma
SK-MEL-28 melanoma = system: SK-MEL-28 melanoma
SK-MEL-5 melanoma = system: SK-MEL-5 melanoma
SK-OV-3 ovarian = system: SK-OV-3 ovarian
SNB-19 CNS = system: SNB-19 CNS
SNB-75 CNS = system: SNB-75 CNS
SNB-78 CNS = system: SNB-78 CNS
SW-620 colon = system: SW-620 colon
TK-10 renal = system: TK-10 renal
U251 CNS = system: U251 CNS
UACC-257 melanoma = system: UACC-257 melanoma
UACC-62 melanoma = system: UACC-62 melanoma
UO-31 renal = system: UO-31 renal
CAKI-1 renal = system: CAKI-1 renal
HCT-15 colon = system: HCT-15 colon
NCI-H522 lung = system: NCI-H522 lung
OVCAR-5 ovarian = system: OVCAR-5 ovarian
SF-268 CNS = system: SF-268 CNS
SN12C renal = system: SN12C renal
SR leukemia = system: SR leukemia

`O=C(c1ccccc1)N1CCN2CCN=C(c3ccccc3)C21c1ccccc1` (stereo unspecified) was tested, and the TGI (786-0 renal) was greater than 100 µM, the TGI (A498 renal) was greater than 100 µM and the TGI (A549 NSCLC) was greater than 100 µM. For the same molecule, the TGI (ACHN renal) was greater than 100 µM, the TGI (CCRF-CEM leukemia) was greater than 100 µM and the TGI (COLO 205 colon) was greater than 100 µM. It also gave a TGI (DLD-1 colon) greater than 100 µM, a TGI (DMS 114 small cell lung) greater than 100 µM and a TGI (DMS 273 small cell lung) greater than 100 µM. It also gave a TGI (EKVX NSCLC) greater than 100 µM, a TGI (HCC-2998 colon) greater than 100 µM and a TGI (HCT-116 colon) greater than 100 µM. It also gave a TGI (HL-60(TB) leukemia) greater than 100 µM, a TGI (HOP-18 NSCLC) greater than 100 µM and a TGI (HOP-62 NSCLC) greater than 100 µM. The TGI (HOP-92 NSCLC) was greater than 100 µM, the TGI (HT29 colon) was greater than 100 µM and the TGI (IGROV1 ovarian) was greater than 100 µM. It also gave a TGI (K-562 leukemia) greater than 100 µM, a TGI (KM12 colon) greater than 100 µM and a TGI (KM20L2 colon) greater than 100 µM. The TGI (LOX IMVI melanoma) was greater than 100 µM, the TGI (LXFL 529 NSCLC) was greater than 100 µM and the TGI (M14 melanoma) was greater than 100 µM. It also gave a TGI (M19-MEL melanoma) greater than 100 µM, a TGI (MALME-3M melanoma) greater than 100 µM and a TGI (MOLT-4 leukemia) greater than 100 µM. The TGI (NCI-H226 lung) was greater than 100 µM, the TGI (NCI-H23 lung) was greater than 100 µM and the TGI (NCI-H460 lung) was greater than 100 µM. The TGI (OVCAR-3 ovarian) was greater than 100 µM, the TGI (OVCAR-4 ovarian) was greater than 100 µM and the TGI (OVCAR-8 ovarian) was greater than 100 µM. The TGI (RPMI-8226 leukemia) was greater than 100 µM, the TGI (RXF 393 renal) was greater than 100 µM and the TGI (SF-295 CNS) was greater than 100 µM. For the same molecule, the TGI (SF-539 CNS) was greater than 100 µM, the TGI (SK-MEL-2 melanoma) was greater than 100 µM and the TGI (SK-MEL-28 melanoma) was greater than 100 µM. It also gave a TGI (SK-MEL-5 melanoma) greater than 100 µM, a TGI (SK-OV-3 ovarian) greater than 100 µM and a TGI (SNB-19 CNS) greater than 100 µM. It also gave a TGI (SNB-75 CNS) greater than 100 µM, a TGI (SNB-78 CNS) greater than 100 µM and a TGI (SW-620 colon) greater than 100 µM. The TGI (TK-10 renal) was greater than 100 µM, the TGI (U251 CNS) was greater than 100 µM and the TGI (UACC-257 melanoma) was greater than 100 µM. The TGI (UACC-62 melanoma) was greater than 100 µM and the TGI (UO-31 renal) was greater than 100 µM.

`CCCCCCCCCCCCCCCC/C(C(=O)OC)=C(/O)C(=O)OCC` was tested, and the TGI (786-0 renal) was greater than 100 µM, the TGI (A498 renal) was greater than 100 µM and the TGI (A549 NSCLC) was greater than 100 µM. The TGI (ACHN renal) was greater than 100 µM, the TGI (CAKI-1 renal) was greater than 100 µM and the TGI (CCRF-CEM leukemia) was greater than 100 µM. The TGI (COLO 205 colon) was greater than 100 µM, the TGI (DLD-1 colon) was greater than 100 µM and the TGI (DMS 114 small cell lung) was greater than 100 µM. The TGI (DMS 273 small cell lung) was greater than 100 µM, the TGI (HCC-2998 colon) was greater than 100 µM and the TGI (HCT-116 colon) was greater than 100 µM. For the same molecule, the TGI (HCT-15 colon) was greater than 100 µM, the TGI (HL-60(TB) leukemia) was greater than 100 µM and the TGI (HOP-18 NSCLC) was greater than 100 µM. The TGI (HOP-62 NSCLC) was greater than 100 µM, the TGI (HOP-92 NSCLC) was 84.9 µM and the TGI (HT29 colon) was greater than 100 µM. For the same molecule, the TGI (IGROV1 ovarian) was greater than 100 µM, the TGI (K-562 leukemia) was greater than 100 µM and the TGI (KM12 colon) was greater than 100 µM. The TGI (KM20L2 colon) was greater than 100 µM, the TGI (LOX IMVI melanoma) was greater than 100 µM and the TGI (LXFL 529 NSCLC) was greater than 100 µM. The TGI (M14 melanoma) was greater than 100 µM, the TGI (M19-MEL melanoma) was greater than 100 µM and the TGI (MALME-3M melanoma) was greater than 100 µM. For the same molecule, the TGI (MOLT-4 leukemia) was greater than 100 µM, the TGI (NCI-H226 lung) was greater than 100 µM and the TGI (NCI-H23 lung) was greater than 100 µM. For the same molecule, the TGI (NCI-H460 lung) was greater than 100 µM, the TGI (NCI-H522 lung) was greater than 100 µM and the TGI (OVCAR-3 ovarian) was greater than 100 µM. For the same molecule, the TGI (OVCAR-4 ovarian) was greater than 100 µM, the TGI (OVCAR-5 ovarian) was greater than 100 µM and the TGI (OVCAR-8 ovarian) was greater than 100 µM. For the same molecule, the TGI (RPMI-8226 leukemia) was greater than 100 µM, the TGI (RXF 393 renal) was greater than 100 µM and the TGI (SF-268 CNS) was greater than 100 µM. It also gave a TGI (SF-295 CNS) greater than 100 µM, a TGI (SF-539 CNS) greater than 100 µM and a TGI (SK-MEL-2 melanoma) greater than 100 µM. The TGI (SK-MEL-28 melanoma) was greater than 100 µM, the TGI (SK-MEL-5 melanoma) was greater than 100 µM and the TGI (SK-OV-3 ovarian) was greater than 100 µM. It also gave a TGI (SN12C renal) greater than 100 µM, a TGI (SNB-19 CNS) greater than 100 µM and a TGI (SNB-75 CNS) greater than 100 µM. It also gave a TGI (SNB-78 CNS) greater than 100 µM, a TGI (SR leukemia) greater than 100 µM and a TGI (SW-620 colon) greater than 100 µM. It also gave a TGI (TK-10 renal) greater than 100 µM, a TGI (U251 CNS) greater than 100 µM and a TGI (UACC-257 melanoma) greater than 100 µM. For the same molecule, the TGI (UACC-62 melanoma) was greater than 100 µM and the TGI (UO-31 renal) was greater than 100 µM.
